# Measurements as given in patent US5932410A, “Assay for the detection of proteases” (Commonwealth Scientific and Industrial Research …, priority 1994, dated 1999).
# Where a SMILES comes first, the peptide text is derived from it. The star is where a group is joined. Cbz = O=C(OCc1ccccc1)*
# Assays:
# Chymotrypsin = Chymotrypsin (Bos taurus, UniProt P00766); assay: Esterase assay, chymotrypsin; type: biochemical; details: Z-AX-OMe substrate; for Esterase rate, Chymotrypsin: X = P1 residue, rates approximately ± 10%; for % of maximum activity, Chymotrypsin: percentage of the maximum activity
# Excerpt: (§1) Advantage was taken of this activity to develop an "esterase" assay which uses a pH indicator to visualise the hydrogen ion release caused by the action of proteases on peptide-ester substrates. A series of twenty compounds of the form, carbobenzoxy alanyl-X-methyl ester (Z-AX-OMe) were synthesised where "X" is one of the naturally occurring amino acids. These substrates were used in a 96 well microtitre plate assay to screen each mutant enzyme for activity and specificity. The reactions were followed visually or quantified using a standard ELISA plate reader. The esterase assay, using trypsin as a test enzyme and Z-Ala-Arg-OMe as substrate, was more sensitive as than traditional trypsin substrates (three times the rate obtained with benzoyl arginine ethyl aster and twenty times the rate of benzoyl arginine p-nitroanilide) (Whittaker et al., Analytical Biochemistry, 220, 238-243, 1994).
# (§2) The present inventors produced a panel of substrates carbobenzoxy alanyl-X-methyl eater (Z-AX-OMe) where X is one of the naturally occurring amino acids. The reactivity of these substrates with a number of serine proteases is set out in Table 1 and FIG. 1.
# (§3) Rates are A580 change/min./mg protease. Rates are also shown as a […]
# Trypsin [1] = assay: Esterase assay, trypsin; type: biochemical; details: Z-AX-OMe substrate; for Esterase rate, Trypsin: X = P1 residue, rates approximately ± 10%; for % of maximum activity, Trypsin: percentage of the maximum activity
# Excerpt: as §1, §2, §3
# Thrombin = Thrombin (Homo sapiens, UniProt P00734); assay: Esterase assay, thrombin; type: biochemical; details: Z-AX-OMe substrate; for Esterase rate, Thrombin: X = P1 residue, rates approximately ± 10%; for % of maximum activity, Thrombin: percentage of the maximum activity
# Excerpt: as §1, §2, §3
# Elastase = Elastase (Sus scrofa, UniProt P00772); assay: Esterase assay, elastase; type: biochemical; details: Z-AX-OMe substrate; for Esterase rate, Elastase: X = P1 residue, rates approximately ± 10%; for % activity, Elastase: normalised to alanine
# Excerpt: as §1, §2, §3
# α-Lytic protease = α-Lytic protease (Lysobacter enzymogenes, UniProt P00778); assay: Esterase assay, α-lytic protease; type: biochemical; details: Z-AX-OMe substrate; for Esterase rate, α-Lytic protease: X = P1 residue, rates approximately ± 10%; for % activity, α-Lytic protease: normalised to alanine
# Excerpt: as §1, §2, §3
# Subtilisin = assay: Esterase assay, subtilisin; type: biochemical; details: Z-AX-OMe substrate; for Esterase rate, Subtilisin: X = P1 residue, rates approximately ± 10%; for % of maximum activity, Subtilisin: percentage of the maximum activity
# Excerpt: as §1, §2, §3
# Proteinase K = Proteinase K (Parengyodontium album, UniProt P06873); assay: Esterase assay, proteinase K; type: biochemical; details: Z-AX-OMe substrate; for Esterase rate, Proteinase K: X = P1 residue, rates approximately ± 10%; for % of maximum activity, Proteinase K: percentage of the maximum activity
# Excerpt: as §1, §2, §3
# [2] = target: prostate specific antigen (PSA) (Homo sapiens, UniProt P07288); assay: Esterase assay, PSA on peptide ester substrates; type: biochemical; details: for Substrate preference of PSA: within the substrate series tested; for Rate relative to Ac-AlaValTyr-OMe (218): rate of hydrolysis
# Excerpt: Advantage was taken of this activity to develop an "esterase" assay which uses a pH indicator to visualise the hydrogen ion release caused by the action of proteases on peptide-ester substrates. A series of twenty compounds of the form, carbobenzoxy alanyl-X-methyl ester (Z-AX-OMe) were synthesised where "X" is one of the naturally occurring amino acids. These substrates were used in a 96 well microtitre plate assay to screen each mutant enzyme for activity and specificity. The reactions were followed visually or quantified using a standard ELISA plate reader.
# In all eleven compounds were synthesised and purified and tested where X was the residue listed below.
# Trypsin [3] = details: trypsin as test enzyme; cited from earlier work
# [4] = substrates of the form Ac-Ala-x-TyrOMe, FIG. 2
# Sequence of Elastase (P00772 27-266): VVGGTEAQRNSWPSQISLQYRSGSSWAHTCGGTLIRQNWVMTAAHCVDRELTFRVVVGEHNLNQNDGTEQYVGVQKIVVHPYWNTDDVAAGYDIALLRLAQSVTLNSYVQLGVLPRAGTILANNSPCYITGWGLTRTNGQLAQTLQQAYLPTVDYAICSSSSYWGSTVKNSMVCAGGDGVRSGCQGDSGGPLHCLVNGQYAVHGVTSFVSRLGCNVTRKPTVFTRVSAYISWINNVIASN
# Sequence of Proteinase K (P06873 106-384): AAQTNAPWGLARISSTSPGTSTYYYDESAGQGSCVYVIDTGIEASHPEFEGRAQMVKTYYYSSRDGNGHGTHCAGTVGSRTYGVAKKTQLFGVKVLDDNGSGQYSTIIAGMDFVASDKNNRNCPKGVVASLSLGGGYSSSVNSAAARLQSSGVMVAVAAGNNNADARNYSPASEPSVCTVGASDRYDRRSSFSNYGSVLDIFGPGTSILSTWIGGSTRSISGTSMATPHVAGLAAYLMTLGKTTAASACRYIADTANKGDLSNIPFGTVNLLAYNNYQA
# Sequence of α-Lytic protease (P00778 25-397 limits assumed): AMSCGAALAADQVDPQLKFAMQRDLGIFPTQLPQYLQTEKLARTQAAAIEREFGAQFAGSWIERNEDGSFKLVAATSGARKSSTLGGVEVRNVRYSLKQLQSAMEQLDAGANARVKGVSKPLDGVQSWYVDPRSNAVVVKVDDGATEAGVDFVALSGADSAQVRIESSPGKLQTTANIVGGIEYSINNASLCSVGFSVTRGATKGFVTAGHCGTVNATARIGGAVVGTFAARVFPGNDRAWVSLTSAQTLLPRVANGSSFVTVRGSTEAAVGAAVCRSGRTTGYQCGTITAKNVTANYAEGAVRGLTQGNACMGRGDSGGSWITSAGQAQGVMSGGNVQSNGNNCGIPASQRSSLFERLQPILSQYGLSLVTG
# Sequence of prostate specific antigen (PSA) (P07288 25-261): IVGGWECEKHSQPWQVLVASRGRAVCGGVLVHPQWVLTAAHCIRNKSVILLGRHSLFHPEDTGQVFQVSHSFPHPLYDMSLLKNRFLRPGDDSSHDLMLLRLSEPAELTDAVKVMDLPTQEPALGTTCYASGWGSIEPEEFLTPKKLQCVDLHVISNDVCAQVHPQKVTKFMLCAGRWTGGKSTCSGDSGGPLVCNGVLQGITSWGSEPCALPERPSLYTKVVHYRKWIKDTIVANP
Compound,"Esterase rate, Chymotrypsin (Chymotrypsin)","% of maximum activity, Chymotrypsin (Chymotrypsin)","Esterase rate, Trypsin (Trypsin [1])","% of maximum activity, Trypsin (Trypsin [1])","Esterase rate, Thrombin (Thrombin)","% of maximum activity, Thrombin (Thrombin)","Esterase rate, Elastase (Elastase)","% activity, Elastase (Elastase)","Esterase rate, α-Lytic protease (α-Lytic protease)","% activity, α-Lytic protease (α-Lytic protease)","Esterase rate, Subtilisin (Subtilisin)","% of maximum activity, Subtilisin (Subtilisin)","Esterase rate, Proteinase K (Proteinase K)","% of maximum activity, Proteinase K (Proteinase K)",further results
"COC(=O)[C@H](Cc1ccc(O)cc1)NC(=O)[C@H](C)NC(=O)OCc1ccccc1 [Tyr, Z-Ala-Tyr-OMe] (Cbz-Ala-Tyr-OMe)",55.2 A580 change/min./mg protease,100%,10.8 A580 change/min./mg protease,3.0%,0 A580 change/min./mg protease,0%,0 A580 change/min./mg protease,0%,0 A580 change/min./mg protease,0%,345 A580 change/min./mg protease,16.1%,80 A580 change/min./mg protease,10.3%,Substrate preference of PSA [2]: preferred substrate
"COC(=O)[C@H](Cc1ccc(O)cc1)NC(=O)[C@@H](NC(=O)[C@H](C)NC(C)=O)C(C)C [Substrate 218, Ac-AlaValTyr-OMe] (Ac-Ala-Val-Tyr-OMe)",–,–,–,–,–,–,–,–,–,–,–,–,–,–,"Rate relative to Z-AlaTyr OMe (the screening substrate) ([2]; PSA, from the graph (FIG. 2)): 15.5; Substrate preference of PSA [2]: best"
"COC(=O)[C@H](CCCNC(=N)N)NC(=O)[C@H](C)NC(=O)OCc1ccccc1 [Arg, Z-Ala-Arg-OMe] (Cbz-Ala-Arg-OMe)",1.1 A580 change/min./mg protease,2.0%,355.4 A580 change/min./mg protease,100%,8.7 A580 change/min./mg protease,100%,0 A580 change/min./mg protease,0%,0 A580 change/min./mg protease,0%,97 A580 change/min./mg protease,4.5%,24 A580 change/min./mg protease,3.1%,Rate relative to benzoyl arginine ethyl ester (Trypsin [3]): three times; Rate relative to benzoyl arginine p-nitroanilide (Trypsin [3]): twenty times
COC(=O)[C@H](C)NC(=O)[C@H](C)NC(=O)OCc1ccccc1 [Ala] (Cbz-Ala-Ala-OMe),trace,–,0 A580 change/min./mg protease,0%,0 A580 change/min./mg protease,0%,15.7 A580 change/min./mg protease,100%,6.2 A580 change/min./mg protease,100%,1536 A580 change/min./mg protease,73.8%,775 A580 change/min./mg protease,100%,–
COC(=O)[C@H](Cc1ccc(O)cc1)NC(=O)[C@H](CC(C)C)NC(=O)[C@H](C)NC(C)=O [Ac-AlaLeuTyr-OMe] (Ac-Ala-Leu-Tyr-OMe),–,–,–,–,–,–,–,–,–,–,–,–,–,–,Rate relative to Ac-AlaValTyr-OMe (218) ([2]; PSA): 70%
COC(=O)[C@@H](NC(=O)[C@H](C)NC(=O)OCc1ccccc1)[C@@H](C)O [Thr] (Cbz-Ala-Thr-OMe),trace,–,0 A580 change/min./mg protease,0%,0 A580 change/min./mg protease,0%,3.1 A580 change/min./mg protease,19.7%,4.2 A580 change/min./mg protease,67.7%,123 A580 change/min./mg protease,5.7%,90 A580 change/min./mg protease,11.6%,–
COC(=O)[C@H](CCC(N)=O)NC(=O)[C@H](C)NC(=O)OCc1ccccc1 [Gln] (Cbz-Ala-Gln-OMe),0.5 A580 change/min./mg protease,0.9%,0 A580 change/min./mg protease,0%,0 A580 change/min./mg protease,0%,0 A580 change/min./mg protease,0%,0 A580 change/min./mg protease,0%,1308 A580 change/min./mg protease,60.9%,553 A580 change/min./mg protease,71.4%,–
COC(=O)[C@H](CCCCN)NC(=O)[C@H](C)NC(=O)OCc1ccccc1 [Lys] (Cbz-Ala-Lys-OMe),1.5 A580 change/min./mg protease,2.7%,155.8 A580 change/min./mg protease,44.0%,4.3 A580 change/min./mg protease,49.0%,0 A580 change/min./mg protease,0%,0 A580 change/min./mg protease,0%,153 A580 change/min./mg protease,7.1%,61 A580 change/min./mg protease,7.9%,–
COC(=O)[C@H](Cc1cnc[nH]1)NC(=O)[C@H](C)NC(=O)OCc1ccccc1 [His] (Cbz-Ala-His-OMe),1.5 A580 change/min./mg protease,2.7%,3.0 A580 change/min./mg protease,0.8%,trace,–,0 A580 change/min./mg protease,0%,0 A580 change/min./mg protease,0%,249 A580 change/min./mg protease,11.6%,203 A580 change/min./mg protease,26.2%,–
COC(=O)[C@H](CO)NC(=O)[C@H](C)NC(=O)OCc1ccccc1 [Ser] (Cbz-Ala-Ser-OMe),trace,–,0 A580 change/min./mg protease,0%,0 A580 change/min./mg protease,0%,0.4 A580 change/min./mg protease,3.6%,0.7 A580 change/min./mg protease,11.3%,366 A580 change/min./mg protease,17.0%,348 A580 change/min./mg protease,44.9%,–
COC(=O)[C@H](Cc1ccc(O)cc1)NC(=O)[C@@H](NC(=O)[C@H](C)NC(=O)[C@@H](NC(C)=O)C(C)C)C(C)C [Ac-Val AlaValTyr-OMe] (Ac-VAVY-OMe),–,–,–,–,–,–,–,–,–,–,–,–,–,–,Rate relative to Ac-AlaValTyr-OMe (218) ([2]; PSA): 64.6%
"PSA: prostate specific antigen, a protease; the enzyme tested on the substrates",–,–,–,–,–,–,–,–,–,–,–,–,–,–,"Rate of PSA [2, 4]: 0.0263 OD580 change/min/μg; Rate of PSA, equivalent [2, 4]: 9.99 μmoles substrate/min/mg"
COC(=O)[C@H](CC(C)C)NC(=O)[C@H](C)NC(=O)OCc1ccccc1 [Leu] (Cbz-Ala-Leu-OMe),2.4 A580 change/min./mg protease,4.3%,0 A580 change/min./mg protease,0%,0 A580 change/min./mg protease,0%,3.4 A580 change/min./mg protease,21.7%,0 A580 change/min./mg protease,0%,1329 A580 change/min./mg protease,61.8%,240 A580 change/min./mg protease,31.0%,–
